Reference: patent publication US20230340137A1, “METHODS, THERAPIES AND USES FOR TREATING CANCER” (PFIZER INC., priority 2020, published 2023)

Experiments:
[1] = tested on: MM.1S-Luc-PD-L1 multiple myeloma cells; test: Orthotopic MM.1S-Luc-PD-L1 multiple myeloma mouse model, luminescent imaging; assay type: in vivo, NSG mice; conditions: BCMAxCD3 10 μg/kg single IV dose day 21, anti-PD-1 5 mg/kg IP twice a week
Procedure: MM.1 S-Luc multiple myeloma cells were engineered to express PD-L1 and are referred to as MM.1S-Luc-PD-L1. MM.1S-Luc-PD-L1 cells were prepared as a single cell suspension of 5×10^6 cells for intravenous (IV) inoculation into NSG mice.
Tumor growth was monitored by luminescent imaging by intraperitoneal (IP) injection of luciferin solution in DPBS and imaged using Perkin Elmer IVIS Spectrum camera system. Animals were administered 2×10^7 expanded human T cells IV 19 days after tumor cell inoculation. Two days following T cell administration, a single dose of the BCMAxCD3 bispecific (10 μg/kg) was administered as a bolus IV injection. Anti-PD-1 antibody was administered twice a week as a bolus IP injection at 5 mg/kg for a total of 6 injections.
Tumor growth was monitored via imaging measurements collected twice weekly. Mice were imaged using the Perkin Elmer IVIS Spectrum camera system with automatic parameter determination and a maximum imaging time of 3 minutes. Living Image software was used to collect the data. Regions of Interest (ROIs) were drawn around the entire body of the mouse, excluding as much as possible of the tail. Background flux, as measured on the anesthesia manifold, is subtracted from each ROI. Tumor measurements are expressed as total flux expressed in photons/sec (p/s). Study was terminated at day 40 post tumor inoculation.

[2] = tested on: MM.1S-PD-L1 multiple myeloma cells; test: Subcutaneous MM.1S-PD-L1 multiple myeloma mouse model, tumor volume; assay type: in vivo
Procedure: MM.1S multiple myeloma cells were engineered to express PD-L1 and are referred to as MM.1S-PD-L1. Pre-activated and expanded T cells (20×10^6) were administered on Day 19 after MM.1S-PDL1 tumor cell inoculation subcutaneously (SC). BCMAxCD3 bispecific (0.3 or 1 mg/kg) or negative bispecific (1 mg/kg) was administered IV on Day 21 and dosed Q7Dx3. Anti-PD-1 mAb was administered at 5 mg/kg intraperitoneally (IP) twice a week starting on Day 21. Tumor measurements were recorded 2 to 3 times a week using digital calipers. N (at study start) is 5-12 animals per group.

[3] = tested on: Raji-luc lymphoma cells; test: BCMAxCD3 mediated cell killing with human T cells, with or without GSI (luciferase viability); assay type: cell-based; conditions: with or without 1 μM GSI, 60 hours
Procedure: CD3^+ T cells from PBMCs (Stem Cell Technologies) were negatively selected using EasySep Human T cell enrichment kit (Stem Cell Technologies). 10,000 target lymphoma cells expressing luciferase (Raji-luc) were treated with 1 μM GSI. After 24 hours, cells were seeded with 50,000 CD3^+ pan T cells in a clear 96-well V-bottom plate. Cells were further treated with a range of BCMAxCD3 bispecific concentrations with or without 1 μM GSI. 60 hours after treatment, luciferase activity in treated cells was analyzed using NeoLite reagent kit (Perkin Elmer) and acquired on VictorX multimode plate reader (Perkin Elmer). Cell viability was calculated by dividing luciferase activity of treated cells over luciferase activity of untreated control (no BCMAxCD3 bispecific antibody added).

PF-06863135: heterodimeric humanized full-length bispecific antibody, one BCMA binding arm and one CD3 binding arm, modified human IgG2Δa Fc
Tumor measurements expressed as total flux ([1]; day 15 post tumor cell inoculation (before dosing)): 1.513 × 10^7 p/s
Tumor measurements expressed as total flux ([1]; day 18 post tumor cell inoculation (before dosing)): 8.343 × 10^7 p/s
Tumor measurements expressed as total flux ([1]; day 20 post tumor cell inoculation (before dosing)): 1.788 × 10^8 p/s
Tumor measurements expressed as total flux ([1]; day 25 post tumor cell inoculation): 2.2729 × 10^7 p/s
Tumor measurements expressed as total flux ([1]; day 28 post tumor cell inoculation): 7.082 × 10^7 p/s
Tumor measurements expressed as total flux ([1]; day 32 post tumor cell inoculation): 7.076 × 10^7 p/s
Tumor measurements expressed as total flux ([1]; day 35 post tumor cell inoculation): 8.712 × 10^8 p/s
Tumor measurements expressed as total flux ([1]; day 39 post tumor cell inoculation): 6.776 × 10^8 p/s
Tumor Volume ± SEM ([2]; day 14 post inoculation (before dosing), bispecific 0.3 mg/kg IV Q7Dx3 from Day 21, anti-PD-1 5 mg/kg IP twice a week): 34.4 ± 9.5 mm^3
Tumor Volume ± SEM ([2]; day 14 post inoculation (before dosing), bispecific 1 mg/kg IV Q7Dx3 from Day 21, anti-PD-1 5 mg/kg IP twice a week): 26.4 ± 7.5 mm^3
Tumor Volume ± SEM ([2]; day 18 post inoculation (before dosing), bispecific 0.3 mg/kg IV Q7Dx3 from Day 21, anti-PD-1 5 mg/kg IP twice a week): 91.6 ± 18 mm^3
Tumor Volume ± SEM ([2]; day 18 post inoculation (before dosing), bispecific 1 mg/kg IV Q7Dx3 from Day 21, anti-PD-1 5 mg/kg IP twice a week): 92 ± 17.1 mm^3
Tumor Volume ± SEM ([2]; day 20 post inoculation (before dosing), bispecific 0.3 mg/kg IV Q7Dx3 from Day 21, anti-PD-1 5 mg/kg IP twice a week): 122.5 ± 20.7 mm^3
Tumor Volume ± SEM ([2]; day 20 post inoculation (before dosing), bispecific 1 mg/kg IV Q7Dx3 from Day 21, anti-PD-1 5 mg/kg IP twice a week): 130.7 ± 24.6 mm^3
Tumor Volume ± SEM ([2]; day 25 post inoculation, bispecific 0.3 mg/kg IV Q7Dx3 from Day 21, anti-PD-1 5 mg/kg IP twice a week): 403 ± 59 mm^3
Tumor Volume ± SEM ([2]; day 25 post inoculation, bispecific 1 mg/kg IV Q7Dx3 from Day 21, anti-PD-1 5 mg/kg IP twice a week): 601.1 ± 70 mm^3
Tumor Volume ± SEM ([2]; day 28 post inoculation, bispecific 0.3 mg/kg IV Q7Dx3 from Day 21, anti-PD-1 5 mg/kg IP twice a week): 403.3 ± 67.6 mm^3
Tumor Volume ± SEM ([2]; day 28 post inoculation, bispecific 1 mg/kg IV Q7Dx3 from Day 21, anti-PD-1 5 mg/kg IP twice a week): 482.9 ± 32.6 mm^3
Tumor Volume ± SEM ([2]; day 32 post inoculation, bispecific 0.3 mg/kg IV Q7Dx3 from Day 21, anti-PD-1 5 mg/kg IP twice a week): 603.6 ± 151.6 mm^3
Tumor Volume ± SEM ([2]; day 32 post inoculation, bispecific 1 mg/kg IV Q7Dx3 from Day 21, anti-PD-1 5 mg/kg IP twice a week): 410.5 ± 82.7 mm^3
Tumor Volume ± SEM ([2]; day 35 post inoculation, bispecific 0.3 mg/kg IV Q7Dx3 from Day 21, anti-PD-1 5 mg/kg IP twice a week): 835.1 ± 77.2 mm^3
Tumor Volume ± SEM ([2]; day 35 post inoculation, bispecific 1 mg/kg IV Q7Dx3 from Day 21, anti-PD-1 5 mg/kg IP twice a week): 627.9 ± 111.8 mm^3
Tumor Volume ± SEM ([2]; day 39 post inoculation, bispecific 0.3 mg/kg IV Q7Dx3 from Day 21, anti-PD-1 5 mg/kg IP twice a week): 1569.3 ± 151.8 mm^3
Tumor Volume ± SEM ([2]; day 39 post inoculation, bispecific 1 mg/kg IV Q7Dx3 from Day 21, anti-PD-1 5 mg/kg IP twice a week): 1436.8 ± 276.4 mm^3
Raji Cell Viability ([3]; BCMA × CD3 0.00064 nM): 94 ± 3.7 % control
Raji Cell Viability ([3]; BCMA × CD3 0.0032 nM): 107 ± 4.5 % control
Raji Cell Viability ([3]; BCMA × CD3 0.016 nM): 105.8 ± 10.2 % control
Raji Cell Viability ([3]; BCMA × CD3 0.08 nM): 89.3 ± 5.7 % control
Raji Cell Viability ([3]; BCMA × CD3 0.4 nM): 88.1 ± 18.4 % control
Raji Cell Viability ([3]; BCMA × CD3 2 nM): 71 ± 9.7 % control
Raji Cell Viability ([3]; BCMA × CD3 10 nM): 82.1 ± 9.7 % control
Raji Cell Viability ([3]; BCMA × CD3 50 nM): 80 ± 13.2 % control
